In US11299494B2, “Substituted imidazo[1,2-b]pyridazines as interleukin-23 and interferon-α modulators” (BRISTOL-MYERS SQUIBB COMPANY, priority 2016, dated 2022):

Experiments:
[1] = test system: IL-23 Kit225 Reporter (Kit225 T cells with STAT-dependent luciferase reporter); experiment: Kit225 T cell assay, IL-23 stimulated STAT-dependent luciferase reporter; format: cell-based; details: 20 ng/mL human recombinant IL-23, 5-6 hours
Experimental: (§1) Kit225 T cells with a stably-integrated STAT-dependent luciferase reporter were plated in RPMI (GIBCO) containing 10% heat-inactivated FBS (GIBCO) and 100 U/mL PenStrep (GIBCO). The cells were then stimulated with either 20 ng/mL human recombinant IL-23 or 200 U/mL human recombinant IFNα (PBL InterferonSource) for 5-6 hours. Luciferase expression was measured using the STEADY-GLO® Luciferase Assay System (PROMEGA®) according to the manufacturer's instructions. Inhibition data were calculated by comparison to no inhibitor control wells for 0% inhibition and non-stimulated control wells for 100% inhibition. Dose response curves were generated to determine the concentration required to inhibit 50% of cellular response (IC50) as derived by non-linear regression analysis.

[2] = molecular target: T1, human Tyk2 (amino acids 575-869, His-tagged) (Homo sapiens, UniProt P29597); experiment: Probe displacement assay (scintillation proximity, radiolabeled probe); format: binding; details: 2.5 nM Tyk2 (575-869), 40 nM tritiated probe, 30 minutes at room temperature
T1 construct: made in house
Experimental: The probe displacement assay is conducted as follows: In a […], test compounds along with recombinantly expressed His-tagged protein corresponding to amino acids 575-869 of human Tyk2 (sequence shown below) at 2.5 nM, 40 nM ((R)—N-(1-(3-(8-methyl-5-(methylamino)-8H-imidazo[4,5-d]thiazolo[5,4-b]pyridin-2-yl)phenyl)ethyl)-2-([^3H]methylsulfonyl)benzamide) (preparation described below) and 80 μg/mL Copper His-Tag scintillation proximity assay beads (Perkin Elmer, Catalog #RPNQ0095) in 50 mM HEPES, pH 7.5, containing 100 μg/mL bovine serum albumin and 5% DMSO were incubated for 30 minutes at room temperature. The amount of radiolabeled probe (preparation described below) bound to Tyk2 was then quantified by scintillation counting, and the inhibition by the test compound calculated by comparison to wells either with no inhibitor (0% inhibition) or without Tyk2 (100% inhibition). The IC50 value is defined as the concentration of test compound required to inhibit radiolabeled probe binding by 50%.
Protein Sequence of recombinant Hig-tagged Tyk2 (575-869):
The preparation of radiolabeled probe, (R)—N-(1-(3-(8-methyl-5-(methylamino)-8H-imidazo[4,5-d]thiazolo[5,4-b]pyridin-2-yl)phenyl)ethyl)-2-([^3H]methylsulfonyl)benzamide, was performed as described below:
2-([^3H]methylsulfonyl)benzoic acid: 2-Mercaptobenzoic acid (2.3 mg, 0.015 mmol) and cesium carbonate (2 mg, 0.006 mmol) were added to a 5 mL round-bottomed flask. The flask was attached to a ported glass vacuum line and anhydrous DMF (0.5 mL) was introduced with magnetic stirring. An ampoule of tritiated methyl iodide (200 mCi, Perkin-Elmer lot 3643419) was added to the reaction flask and stirring was maintained at rt for 3 h. In-process HPLC analysis with radiometric detection indicated 80% conversion to the desired product by comparison with authentic standard. Without purification, the crude product was reacted with mCPBA (10 mg, 0.058 mmol) pre-dissolved in CH2Cl2 (1 mL) at room temperature with stirring. The reaction was stirred for 7 h and additional mCPBA (10 mg, 0.058 mmol) was added. The reaction was stirred for approximately 24 h and HPLC analysis indicated 35-40% conversion to the desired […] product. The crude product was purified by semi-preparative HPLC (Luna Sum C18 (10×250 cm); A: MeOH/H2O=15/85 (0.1% TFA); B: MeOH; 270 nm; 0-8 min 0% B 1 ml/min; 8-10 min 0% B 1-3 ml/min; 10-55 min 0% B 3 ml/min; 55-65 min 0-10% B 3 ml/min; 65-75 min 10-50% B 3 ml/min; 75-80 min 50-100% B 3 ml/min) to give 81 mCi (40% radiochemical yield) of 2-([^3H]methylsulfonyl)benzoic acid product identified by its HPLC co-elution with an authentic standard. The radiochemical purity was measured by HPLC to be 99% (Luna 5u C18 (4.6×150 cm); A: H2O (0.1% TFA); B: MeOH; 1.2 ml/min; 270 nm; 0-10 min 20% B; 10-15 min 20-100% B; 15-25 min 100% B. The product was dissolved in anhydrous acetonitrile to give a final solution activity of 5.8 mCi/mL. (R)—N-(1-(3-(8-methyl-5-(methylamino)-8H-imidazo[4,5-d]thiazolo[5,4-b]pyridin-2-yl)phenyl)ethyl)-2-([^3H]methylsulfonyl)benzamide: A solution of 2-([^3H]methylsulfonyl)benzoic acid (23.2 mCi) in acetonitrile was added to a 5 mL round-bottomed flask which was then attached to a vacuum line and carefully evaporated to dryness. (R)-2-(3-(1-aminoethyl)phenyl)-N,8-dimethyl-8H-imidazo[4,5-d]thiazolo[5,4-b]pyridin-5-amine (prepared as described in WO 2004/106293 and Dyckman et al., Bioorganic and Medicinal Chemistry Letters, 383-386 (2011)) (1.1 mg, 0.0033 mmol) and PyBOP (2 mg, 0.0053 mmol) dissolved in anhydrous DMF (1.5 mL) were added to the flask followed by N,N-diisopropylethylamine (0.010 mL). The resulting clear solution was stirred at room temperature for 18 h. […]

[3] = test system: IFNa Kit225 Reporter (Kit225 T cells with STAT-dependent luciferase reporter); experiment: Kit225 T cell assay, IFNα stimulated STAT-dependent luciferase reporter; format: cell-based; details: 200 U/mL human recombinant IFNα, 5-6 hours
Experimental: as §1

T1 sequence (P29597 with tags, fused parts or gaps): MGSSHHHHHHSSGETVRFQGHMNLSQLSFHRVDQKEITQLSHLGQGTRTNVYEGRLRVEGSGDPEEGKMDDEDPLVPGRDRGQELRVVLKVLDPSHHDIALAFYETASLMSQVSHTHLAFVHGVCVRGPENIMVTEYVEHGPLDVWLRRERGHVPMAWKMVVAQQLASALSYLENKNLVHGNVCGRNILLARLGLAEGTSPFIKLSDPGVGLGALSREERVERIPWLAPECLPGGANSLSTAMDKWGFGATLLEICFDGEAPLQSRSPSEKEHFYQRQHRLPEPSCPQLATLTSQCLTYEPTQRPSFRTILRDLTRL

Row | IC50 [1] [nM] | EC50 [2] [nM] | IC50 [3] [nM] | SMILES
1 | 2100 | 22 | 1320 | CNc1cc(-n2cc(C(=O)NCC(C)(C)O)c3ccccc32)nn2c(C(=O)NC3CC3)cnc12 [Example 1, N-cyclopropyl-6-(3-((2-hydroxy-2-methylpropyl)carbamoyl)-1H-indol-1-yl)-8-(methylamino)imidazo[1,2-b]pyridazine-3-carboxamide]
2 | 813 | 5 | 1120 | CCNC(=O)c1cn(-c2cc(NC)c3ncc(C(=O)NC4CC4)n3n2)c2ccccc12 [Example 2]
3 | 12500 | 19 | 4790 | CNc1cc(-n2cc(C(=O)N3CCC(O)CC3)c3ccccc32)nn2c(C(=O)NC3CC3)cnc12 [Example 3]
4 | 1890 | 22 | 1230 | CNc1cc(-n2cc(C(=O)Nc3cccnc3)c3ccccc32)nn2c(C(=O)NC3CC3)cnc12 [Example 4]
5 | 1960 | 25 | 4210 | CNc1cc(-n2cc(C(=O)Nc3ccccc3)c3ccccc32)nn2c(C(=O)NC3CC3)cnc12 [Example 5]
6 | 12500 | 31 | 9550 | CNc1cc(-n2cc(C(=O)NCCC(N)=O)c3ccccc32)nn2c(C(=O)NC3CC3)cnc12 [Example 6]
7 | 1640 | 35 | 924 | CNc1cc(-n2cc(C(=O)NCC(C)C)c3ccccc32)nn2c(C(=O)NC3CC3)cnc12 [Example 7]
8 | 574 | 37 | 537 | CNc1cc(-n2cc(C(=O)NCCOC)c3ccccc32)nn2c(C(=O)NC3CC3)cnc12 [Example 8]
9 | 3090 | 40 | 1460 | CNc1cc(-n2cc(C(=O)NC(C)C)c3ccccc32)nn2c(C(=O)NC3CC3)cnc12 [Example 9]
10 | 1100 | 6 | 882 | CNc1cc(-n2cc(C(=O)NCC(C)(C)O)c3ccccc32)nn2c(C(=O)NC3CCC3)cnc12 [Example 10]
11 | 1370 | 10 | 689 | CNc1cc(-n2cc(C(=O)NC3CCOCC3)c3ccccc32)nn2c(C(=O)NC3CCC3)cnc12 [Example 11]
12 | 1740 | 18 | 1290 | CNc1cc(-n2cc(C(=O)N3CCOCC3)c3ccccc32)nn2c(C(=O)NC3CCC3)cnc12 [Example 12]
13 | 294 | 25 | 1250 | CNc1cc(-n2cc(C(=O)NCC(C)(C)O)c3cccnc32)nn2c(C(=O)NC3CC3)cnc12 [Example 13]
14 | 3640 | 29 | 1750 | CNc1cc(-n2cnc3ccccc32)nn2c(C(=O)NC3CC3)cnc12 [Example 14]
15 | 649 | 46 | 2320 | CNc1cc(-n2ccc3c(OC)cccc32)nn2c(C(=O)NC3CC3)cnc12 [Example 15]
16 | 947 | 123 | 1140 | CNc1cc(-n2ccc3ncccc32)nn2c(C(=O)NC3CC3)cnc12 [Example 16]
17 | 355 | 16 | 270 | CNC(=O)c1nn(-c2cc(NC)c3ncc(C(=O)NC4CC4)n3n2)c2ccccc12 [Example 17, N-cyclopropyl-8-(methylamino)-6-(3-(methylcarbamoyl)-1H-indazol-1-yl)imidazo[1,2-b]pyridazine-3-carboxamide]
18 | 700 | 40 | 511 | CNc1cc(-n2nc(C(=O)N3CCOCC3)c3ccccc32)nn2c(C(=O)NC3CC3)cnc12 [Example 18]
19 | 511 | 61 | 474 | CNc1cc(-n2nc(C(=O)N(C)C)c3ccccc32)nn2c(C(=O)NC3CC3)cnc12 [Example 19]
20 | 926 | 75 | 475 | CNc1cc(-n2nc(C(=O)NCC(C)(C)O)c3ccccc32)nn2c(C(=O)NC3CC3)cnc12 [Example 20]
21 | 661 | 13 | 433 | CNc1cc(-n2ccc3ccccc32)nn2c(C(=O)NC3CC3)cnc12 [Example 21]
22 | 12500 | 48 | 12500 | CNc1cc(-n2cc(C(=O)O)c3ccccc32)nn2c(C(=O)NC3CCC3)cnc12 [Example 22]
